The experiment deals with corneal surface after BAC-induced toxicity. As to the kind of experiment: In vivo fluorescence imaging of the cornea after BAC-induced corneal toxicity, compared with lissamine green staining. The arrangement: species or system rat. The following applies: 0.1% and 0.2% BAC twice daily for 7 days. On the procedure:
Adult Wistar rats were given topical instillation of 0.2, 0.1 and 0.02% BAC in 0.9% balanced salt solution (BSS) twice daily for 7 days. External ocular examination was performed and lissamine green staining was used to evaluate the corneal damage prior to and after experiments. One hour after topical Zn-DPA 480 administration, convention light and fluorescence images were taken on animals.
There was no remarkable change on the cornea after administration of BSS. Results are illustrated in FIG. 3.

As to `CN(C)c1ccc(C(=C2C=CC(=[N+](C)C)C=C2)c2c(O)c(S(=O)(=O)[O-])cc3cc(S(=O)(=O)[O-])ccc23)cc1.[Na+]` [lissamine green], the Corneal staining result is recorded as “positive lissamine green staining”.

Source of the values: US20150367004A1, “COMPOSITIONS AND METHODS OF DIAGNOSING OCULAR DISEASES” (MOLECULAR TARGETING TECHNOLOGIES, INC., priority 2012, published 2015).
